Values quoted from earlier work, collected in patent US12569628B2, “Delivery of medicinal gas in a liquid medium” (Third Pole, Inc., priority 2022, dated 2026).
Like-named read-outs stand apart in the source and are kept apart here.

Experiments:
immune system = conditions: low concentrations

[N]=O [NO, nitric oxide]
Henry's law constant kH (NO in alcohol): approximately 6.65×10^−5 mol/m^3 Pa
Henry's law constant kH (NO in water): 1.9×10^−5 mol/m^3 Pa
concentration at which NO stimulates the immune system (immune system): 10^−12 to 10^−9 M
